This passage reports EC50 results from patent US6653334B1, “Benzoxazole compound and pharmaceutical composition containing the same” (Kowa Co., Ltd., priority 2002, dated 2003).

The structures appear in SMILES notation.

What all share (type): cell-based
Assay [1] addresses T1, hPPARα (Homo sapiens, UniProt Q07869).
T1 construct: expressed in transfected cells; host or cells: COS cells (Cercopithecus aethiops kidney)
T1 sequence (Q07869 1-468): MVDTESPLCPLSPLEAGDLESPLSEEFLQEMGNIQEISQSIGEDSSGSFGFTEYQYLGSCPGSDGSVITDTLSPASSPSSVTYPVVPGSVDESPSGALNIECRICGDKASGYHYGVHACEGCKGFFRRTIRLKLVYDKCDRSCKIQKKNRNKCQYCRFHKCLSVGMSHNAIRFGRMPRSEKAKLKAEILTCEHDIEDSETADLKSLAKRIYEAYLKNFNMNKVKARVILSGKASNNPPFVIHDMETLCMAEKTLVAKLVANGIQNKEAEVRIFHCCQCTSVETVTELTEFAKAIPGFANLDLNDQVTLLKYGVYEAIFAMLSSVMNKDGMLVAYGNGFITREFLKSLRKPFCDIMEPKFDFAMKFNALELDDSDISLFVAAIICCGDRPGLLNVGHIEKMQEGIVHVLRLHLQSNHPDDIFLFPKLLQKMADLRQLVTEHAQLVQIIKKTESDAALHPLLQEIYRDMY
Kind of assay: PPAR transfection (luciferase reporter) assay in COS cells, hPPARα. As to conditions: agonist activity, transiently transfected COS cells, 16 hours incubation; read-out: hPPAR; EC50 α. (In a reporter assay the amount or activity of a reporter protein is the signal.)

For assay [2], the target named is T2, hPPARγ (Homo sapiens, UniProt P37231).
T2 construct: expressed in transfected cells; host or cells: COS cells (Cercopithecus aethiops kidney)
T2 sequence (P37231 1-505): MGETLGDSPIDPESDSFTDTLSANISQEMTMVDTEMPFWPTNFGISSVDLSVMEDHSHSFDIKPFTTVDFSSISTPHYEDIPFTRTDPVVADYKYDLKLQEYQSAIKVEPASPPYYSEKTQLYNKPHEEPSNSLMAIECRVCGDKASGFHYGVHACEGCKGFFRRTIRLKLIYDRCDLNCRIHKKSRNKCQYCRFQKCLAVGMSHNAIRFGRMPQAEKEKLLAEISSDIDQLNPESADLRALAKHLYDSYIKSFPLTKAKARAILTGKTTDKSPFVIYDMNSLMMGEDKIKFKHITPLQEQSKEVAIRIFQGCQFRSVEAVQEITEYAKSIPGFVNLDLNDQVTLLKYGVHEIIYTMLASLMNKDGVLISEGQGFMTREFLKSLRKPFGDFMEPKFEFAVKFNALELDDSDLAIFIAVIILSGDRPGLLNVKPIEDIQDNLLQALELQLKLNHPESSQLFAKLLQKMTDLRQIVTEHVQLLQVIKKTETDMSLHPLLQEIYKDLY
Kind of assay: PPAR transfection (luciferase reporter) assay in COS cells, hPPARγ. As to conditions: agonist activity, transiently transfected COS cells, 16 hours incubation; read-out: hPPAR; EC50 γ.

The target of assay [3] is T3, hPPARδ (Homo sapiens, UniProt Q03181).
T3 construct: expressed in transfected cells; host or cells: COS cells (Cercopithecus aethiops kidney)
T3 sequence (Q03181 1-441): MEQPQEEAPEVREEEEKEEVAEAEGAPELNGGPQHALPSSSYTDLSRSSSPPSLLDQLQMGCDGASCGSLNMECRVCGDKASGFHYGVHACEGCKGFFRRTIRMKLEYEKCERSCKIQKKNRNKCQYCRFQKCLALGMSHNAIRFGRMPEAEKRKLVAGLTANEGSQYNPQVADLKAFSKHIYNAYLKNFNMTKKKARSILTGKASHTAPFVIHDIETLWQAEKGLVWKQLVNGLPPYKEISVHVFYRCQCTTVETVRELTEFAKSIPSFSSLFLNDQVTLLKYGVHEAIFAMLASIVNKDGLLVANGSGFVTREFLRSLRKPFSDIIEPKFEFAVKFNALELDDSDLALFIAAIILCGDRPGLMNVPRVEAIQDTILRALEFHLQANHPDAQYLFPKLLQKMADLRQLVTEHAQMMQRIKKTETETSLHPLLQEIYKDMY
The experiment in a line: PPAR transfection (luciferase reporter) assay in COS cells, hPPARδ. As to conditions: agonist activity, transiently transfected COS cells, 16 hours incubation; read-out: hPPAR; EC50 δ.

Regarding `CCCCCCCCN(Cc1cccc(OC(C)C(=O)O)c1)c1nc2ccccc2o1` (stereo not drawn) [Example 69, 2-[3-[[N-(Benzoxazol-2-yl)-N-n-octyl]aminomethyl]phenoxy]propionic Acid], the EC50 in assay [1] is 0.3 nM; in assay [2] it was 200 nM; in assay [3], over 10000 nM.
Taken in the same sequence, the figures for `CC(C)(Oc1cccc(CN(Cc2ccc(Cl)cc2)c2nc3ccccc3o2)c1)C(=O)O` [compound 1] were 10 nM, 200 nM and over 10000 nM.
Taken in the same sequence, the figures for `CC(C)(Oc1cccc(CN(Cc2cccc3ccccc23)c2nc3ccccc3o2)c1)C(=O)O` [Example 135, 2-[3-[[N-(Benzoxazol-2-yl)-N-(naphth-1-ylmethyl)]aminomethyl]phenoxy]-2-methylpropionic Acid] were 10 nM, over 10000 nM and over 10000 nM.
Taken in the same sequence, the figures for `CC(Oc1cccc(CN(CCCc2ccc(Cl)cc2)c2nc3ccccc3o2)c1)C(=O)O` (stereo not drawn) [Example 63, 2-[3-[[N-(Benzoxazol-2-yl)-N-(3-(4-chlorophenyl)propyl)]aminomethyl]phenoxy]propionic Acid] were 2 nM, 100 nM and 900 nM.
`CCCCCCCN(Cc1cccc(OCC(=O)O)c1)c1nc2ccccc2o1` [Example 46, 3-[[N-(Benzoxazol-2-yl)-N-n-heptyl]aminomethyl]phenoxyacetic Acid]: the EC50 was determined as 10 nM in assay [1], 400 nM in assay [2] and 1100 nM in assay [3].
As to `CCC(Oc1cccc(CN(CCCc2ccc(Cl)cc2)c2nc3ccccc3o2)c1)C(=O)O` (stereo not drawn) [Example 56, 2-[3-[[N-(Benzoxazol-2-yl)-N-(3-(4-chlorophenyl)propyl)]aminomethyl]phenoxy]butyric Acid], the EC50 in assay [1] is 1 nM; in assay [2], 100 nM; in assay [3], 1000 nM.
For `CCC(Oc1cccc(CN(CCCc2ccccc2)c2nc3ccccc3o2)c1)C(=O)O` (stereo not drawn) [Example 55, 2-[3-[[N-(Benzoxazol-2-yl)-N-(3-phenylpropyl)]aminomethyl]phenoxy]butyric Acid] the same measures were 2 nM, 100 nM and 600 nM.
Taken in the same sequence, the figures for `CC(C)(Oc1ccc(CN(Cc2cccc3ccccc23)c2nc3ccccc3o2)cc1)C(=O)O` [Example 12, 2-[4-[[N-(Benzoxazol-2-yl)-N-(naphth-1-ylmethyl)]aminomethyl]phenoxy]-2-methylpropionic Acid] were 3 nM, 100 nM and 500 nM.
As to `CC(C)(Oc1ccc(CN(Cc2ccccc2[N+](=O)[O-])c2nc3ccccc3o2)cc1)C(=O)O` [Example 29, 2-[4-[[N-(Benzoxazol-2-yl)-N-(2-nitrobenzyl)]aminomethyl]phenoxy]-2-methylpropionic Acid], the results for the EC50 in assay [1], in assay [2] and in assay [3] were 100 nM, over 10000 nM and over 10000 nM, respectively.
On to `CC(C)N(CCCc1ccc(OC(C)(C)C(=O)O)cc1)c1nc2ccccc2o1` [Example 133, 2-[4-[3-[N-(Benzoxazol-2-yl)-N-isopropyl]aminopropyl]phenoxy]-2-methylpropionic Acid], for which the EC50 in assay [1] was found to be 10 nM; in assay [2] it was 300 nM; in assay [3], 3000 nM.
As for `CC#CCN(CCCc1cccc(OC(C)(C)C(=O)O)c1)c1nc2ccccc2o1` [Example 121, 2-[3-[3-[N-(Benzoxazol-2-yl)-N-(2-butynyl)]aminopropyl]phenoxy]-2-methylpropionic Acid], the EC50 in assay [1] was 4 nM; in assay [2] it was 100 nM; in assay [3] it was over 10000 nM.
Taken in the same sequence, the figures for `CCCCCCCCN(Cc1cccc(OC(CC)C(=O)O)c1)c1nc2ccccc2o1` (stereo not drawn) [Example 59, 2-[3-[[N-(Benzoxazol-2-yl)-N-n-octyl]aminomethyl]phenoxy]butyric Acid] were 3 nM, 100 nM and over 10000 nM.
For `CN(C)c1ccc(CN(Cc2cccc(OC(C)(C)C(=O)O)c2)c2nc3ccccc3o2)cc1` [Example 41, 2-[3-[[N-(Benzoxazol-2-yl)-N-(4-dimethylaminobenzyl)]aminomethyl]phenoxy]-2-methylpropionic Acid] the same measures were 10 nM, 200 nM and 1800 nM.
For `CCN(CCCc1ccc(OC(C)(C)C(=O)O)cc1)c1nc2ccccc2o1` [Example 114, 2-[4-[3-[N-(Benzoxazol-2-yl)-N-ethyl]aminopropyl]phenoxy]-2-methylpropionic Acid] the same measures were 10 nM, 400 nM and over 10000 nM.
With `CCCN(Cc1cccc(OC(C)C(=O)O)c1)c1nc2ccccc2o1` (stereo not drawn) [Example 74, 2-[3-[[N-(Benzoxazol-2-yl)-N-n-propyl]aminomethyl]phenoxy]propionic Acid], the figures for the EC50 in assay [1], in assay [2] and in assay [3] were 100 nM, over 10000 nM and over 10000 nM, respectively.
In the case of `CCCCCCCCN(Cc1cccc(OC(C)(C)C(=O)O)c1)c1nc2ccccc2o1` [Example 6, 2-[3-[[N-(Benzoxazol-2-yl)-N-n-octyl]aminomethyl]phenoxy]-2-methylpropionic Acid], the results for the EC50 in assay [1], in assay [2] and in assay [3] were 10 nM, 200 nM and over 10000 nM, respectively.
For `CC(Oc1cccc(CN(CCCc2ccccc2)c2nc3ccccc3o2)c1)C(=O)O` (stereo not drawn) [Example 70, 2-[3-[[N-(Benzoxazol-2-yl)-N-(3-phenylpropyl)]aminomethyl]phenoxy]propionic Acid] the same measures were 1 nM, 400 nM and over 10000 nM.
For `CCCN(CCCc1ccc(OC(C)(C)C(=O)O)cc1)c1nc2ccccc2o1` [Example 132, 2-[4-[3-[N-(Benzoxazol-2-yl)-N-n-propyl]aminopropyl]phenoxy]-2-methylpropionic Acid] the same measures were 30 nM, 2000 nM and over 10000 nM.
With `CCCCCCCCN(Cc1cccc(OCC(=O)O)c1)c1nc2ccccc2o1` [Example 48, 3-[[N-(Benzoxazol-2-yl)-N-n-octyl]aminomethyl]phenoxyacetic Acid], the EC50 is 10 nM in assay [1], 700 nM in assay [2] and 4500 nM in assay [3].
Take `CCCCCCCCN(CCCc1ccccc1OC(C)(C)C(=O)O)c1nc2ccccc2o1` [Example 155, 2-[2-[3-[N-(Benzoxazol-2-yl)-N-n-octyl]aminopropyl]phenoxy]-2-methylpropionic Acid]: the results for the EC50 in assay [1], in assay [2] and in assay [3] were 10 nM, 500 nM and 300 nM, respectively.
